According to article doi:10.1101/2023.11.24.568596v1 (biorxiv, 2023):
One block for each molecule: values may come before it.

Key:
Details in all cases: binder
[1] = target: CDK2 (Homo sapiens, UniProt P24941)
[2] = target: CLK1 (Homo sapiens, UniProt P49759)
[3] = target: T1, NEK2 (Homo sapiens, UniProt P51955)
T1 sequence (P51955 1-445): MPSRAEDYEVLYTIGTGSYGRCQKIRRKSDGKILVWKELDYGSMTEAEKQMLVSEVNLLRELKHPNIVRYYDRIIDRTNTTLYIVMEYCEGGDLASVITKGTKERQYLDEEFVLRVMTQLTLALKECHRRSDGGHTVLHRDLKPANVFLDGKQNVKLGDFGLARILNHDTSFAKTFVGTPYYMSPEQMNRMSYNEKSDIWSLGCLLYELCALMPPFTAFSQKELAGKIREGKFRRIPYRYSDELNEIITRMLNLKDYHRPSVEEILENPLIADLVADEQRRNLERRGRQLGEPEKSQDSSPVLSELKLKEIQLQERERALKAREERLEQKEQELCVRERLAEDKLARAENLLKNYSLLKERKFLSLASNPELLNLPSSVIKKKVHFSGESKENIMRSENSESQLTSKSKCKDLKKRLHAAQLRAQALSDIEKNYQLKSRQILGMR

[4] = target: T2, PLK4 (Homo sapiens, UniProt O00444)
T2 sequence (O00444 1-970): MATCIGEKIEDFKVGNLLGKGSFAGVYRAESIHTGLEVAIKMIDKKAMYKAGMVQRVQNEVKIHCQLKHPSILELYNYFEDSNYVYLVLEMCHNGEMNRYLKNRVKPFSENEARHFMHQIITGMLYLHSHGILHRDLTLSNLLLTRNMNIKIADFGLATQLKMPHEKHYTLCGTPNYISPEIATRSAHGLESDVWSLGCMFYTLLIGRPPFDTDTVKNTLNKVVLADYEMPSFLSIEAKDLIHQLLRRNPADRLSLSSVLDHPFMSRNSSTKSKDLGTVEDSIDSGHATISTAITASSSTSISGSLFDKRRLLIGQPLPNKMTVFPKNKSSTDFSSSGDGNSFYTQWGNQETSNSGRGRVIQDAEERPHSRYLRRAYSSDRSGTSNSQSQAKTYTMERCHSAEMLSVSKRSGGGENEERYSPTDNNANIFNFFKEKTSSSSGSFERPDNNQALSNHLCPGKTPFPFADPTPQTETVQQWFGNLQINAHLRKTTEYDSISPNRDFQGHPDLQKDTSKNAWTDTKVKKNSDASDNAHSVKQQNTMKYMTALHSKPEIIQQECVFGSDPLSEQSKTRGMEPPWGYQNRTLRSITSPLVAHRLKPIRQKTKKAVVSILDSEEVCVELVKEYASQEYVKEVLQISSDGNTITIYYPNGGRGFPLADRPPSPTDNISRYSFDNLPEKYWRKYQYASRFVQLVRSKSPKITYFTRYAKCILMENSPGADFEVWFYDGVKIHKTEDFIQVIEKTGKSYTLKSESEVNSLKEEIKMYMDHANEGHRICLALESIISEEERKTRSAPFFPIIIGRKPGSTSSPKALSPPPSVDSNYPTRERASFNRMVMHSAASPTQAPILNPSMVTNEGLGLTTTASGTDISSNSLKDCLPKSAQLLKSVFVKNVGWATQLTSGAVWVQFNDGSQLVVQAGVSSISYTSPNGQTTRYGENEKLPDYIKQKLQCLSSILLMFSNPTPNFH

[5] = target: EphA5 (Homo sapiens, UniProt P54756)
[6] = target: ABL1 (Homo sapiens, UniProt P00519)
[7] = target: MAPKAPK2 (Homo sapiens, UniProt P49137)
[8] = target: EphA2 (Homo sapiens, UniProt P29317)
[9] = target: T3, ULK3 (Homo sapiens, UniProt Q6PHR2)
T3 sequence (Q6PHR2 1-472): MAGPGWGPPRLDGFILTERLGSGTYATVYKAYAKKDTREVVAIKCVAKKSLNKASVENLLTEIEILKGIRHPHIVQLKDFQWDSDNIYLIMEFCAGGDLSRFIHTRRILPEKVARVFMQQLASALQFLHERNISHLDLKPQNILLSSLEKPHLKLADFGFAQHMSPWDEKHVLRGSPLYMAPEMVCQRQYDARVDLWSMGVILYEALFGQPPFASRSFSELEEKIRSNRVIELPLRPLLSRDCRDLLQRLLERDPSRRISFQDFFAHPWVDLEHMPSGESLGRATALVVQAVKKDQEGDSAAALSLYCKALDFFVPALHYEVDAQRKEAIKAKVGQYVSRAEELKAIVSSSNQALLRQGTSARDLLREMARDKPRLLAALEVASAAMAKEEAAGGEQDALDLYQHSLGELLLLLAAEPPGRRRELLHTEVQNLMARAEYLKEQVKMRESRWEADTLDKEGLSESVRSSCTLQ

MAPKAPK2, sequence (P49137 whole entry): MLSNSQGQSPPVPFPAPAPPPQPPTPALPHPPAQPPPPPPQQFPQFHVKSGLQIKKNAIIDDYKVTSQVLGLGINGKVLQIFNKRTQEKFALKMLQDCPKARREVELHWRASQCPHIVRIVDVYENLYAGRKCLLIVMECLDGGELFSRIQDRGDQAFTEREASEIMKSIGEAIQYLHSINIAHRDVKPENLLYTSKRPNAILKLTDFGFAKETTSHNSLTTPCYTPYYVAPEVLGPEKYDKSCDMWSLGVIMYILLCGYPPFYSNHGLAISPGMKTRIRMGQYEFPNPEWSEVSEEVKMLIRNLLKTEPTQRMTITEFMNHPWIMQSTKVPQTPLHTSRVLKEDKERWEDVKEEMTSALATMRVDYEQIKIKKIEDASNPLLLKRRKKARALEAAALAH
EphA2, sequence (P29317 whole entry): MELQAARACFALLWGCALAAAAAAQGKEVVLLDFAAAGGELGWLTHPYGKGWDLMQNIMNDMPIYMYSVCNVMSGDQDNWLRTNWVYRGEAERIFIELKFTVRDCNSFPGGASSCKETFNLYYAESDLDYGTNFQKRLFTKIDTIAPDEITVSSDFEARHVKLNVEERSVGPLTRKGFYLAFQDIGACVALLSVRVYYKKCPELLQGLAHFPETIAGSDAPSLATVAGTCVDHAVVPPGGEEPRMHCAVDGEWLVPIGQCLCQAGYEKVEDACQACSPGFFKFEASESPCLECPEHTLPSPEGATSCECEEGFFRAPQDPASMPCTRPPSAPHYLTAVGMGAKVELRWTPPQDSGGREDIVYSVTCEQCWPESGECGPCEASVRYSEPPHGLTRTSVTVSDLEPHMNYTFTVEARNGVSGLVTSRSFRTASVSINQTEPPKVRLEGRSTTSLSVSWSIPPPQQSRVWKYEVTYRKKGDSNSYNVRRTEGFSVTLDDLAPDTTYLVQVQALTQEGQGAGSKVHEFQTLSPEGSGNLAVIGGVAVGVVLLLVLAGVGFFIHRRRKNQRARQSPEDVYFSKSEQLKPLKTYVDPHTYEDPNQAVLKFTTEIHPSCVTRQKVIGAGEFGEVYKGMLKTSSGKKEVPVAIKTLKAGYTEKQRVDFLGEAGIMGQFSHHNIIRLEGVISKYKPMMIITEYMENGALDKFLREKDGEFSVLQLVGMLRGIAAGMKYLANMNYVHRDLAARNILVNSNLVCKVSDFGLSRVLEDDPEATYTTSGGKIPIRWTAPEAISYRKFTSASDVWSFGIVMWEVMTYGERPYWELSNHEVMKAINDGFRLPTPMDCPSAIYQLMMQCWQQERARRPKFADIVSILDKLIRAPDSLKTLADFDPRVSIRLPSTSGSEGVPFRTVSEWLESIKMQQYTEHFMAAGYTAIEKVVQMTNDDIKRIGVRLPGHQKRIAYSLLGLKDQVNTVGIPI
ABL1, sequence (P00519 whole entry): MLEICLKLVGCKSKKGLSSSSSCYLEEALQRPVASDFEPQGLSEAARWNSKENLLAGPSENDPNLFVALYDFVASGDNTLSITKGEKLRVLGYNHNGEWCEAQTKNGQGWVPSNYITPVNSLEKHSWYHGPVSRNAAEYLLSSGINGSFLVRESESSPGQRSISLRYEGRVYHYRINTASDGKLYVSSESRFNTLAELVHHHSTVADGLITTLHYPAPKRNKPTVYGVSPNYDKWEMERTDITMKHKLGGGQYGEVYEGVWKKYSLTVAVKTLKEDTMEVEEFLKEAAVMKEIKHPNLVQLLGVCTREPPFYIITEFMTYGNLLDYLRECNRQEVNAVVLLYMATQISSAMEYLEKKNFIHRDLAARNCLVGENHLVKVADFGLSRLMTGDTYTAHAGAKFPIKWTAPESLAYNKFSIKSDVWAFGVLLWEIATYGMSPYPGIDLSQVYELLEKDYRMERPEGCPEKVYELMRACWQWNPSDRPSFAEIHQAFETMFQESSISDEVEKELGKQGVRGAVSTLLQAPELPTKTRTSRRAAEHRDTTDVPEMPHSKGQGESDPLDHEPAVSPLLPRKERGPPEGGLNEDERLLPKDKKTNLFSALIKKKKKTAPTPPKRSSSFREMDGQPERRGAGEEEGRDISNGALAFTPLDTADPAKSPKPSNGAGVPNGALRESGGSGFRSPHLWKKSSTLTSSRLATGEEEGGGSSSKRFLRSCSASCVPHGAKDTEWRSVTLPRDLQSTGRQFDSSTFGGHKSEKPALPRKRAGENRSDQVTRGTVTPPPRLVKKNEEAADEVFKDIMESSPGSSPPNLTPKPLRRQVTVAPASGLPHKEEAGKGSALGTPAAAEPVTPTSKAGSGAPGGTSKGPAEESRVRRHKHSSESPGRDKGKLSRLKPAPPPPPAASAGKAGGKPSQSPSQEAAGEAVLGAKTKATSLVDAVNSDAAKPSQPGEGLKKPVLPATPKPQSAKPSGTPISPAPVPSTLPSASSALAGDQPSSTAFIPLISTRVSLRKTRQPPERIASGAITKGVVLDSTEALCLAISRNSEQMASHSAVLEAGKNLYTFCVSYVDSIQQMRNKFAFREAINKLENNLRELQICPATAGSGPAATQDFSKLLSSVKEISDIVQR
CLK1, sequence (P49759 whole entry): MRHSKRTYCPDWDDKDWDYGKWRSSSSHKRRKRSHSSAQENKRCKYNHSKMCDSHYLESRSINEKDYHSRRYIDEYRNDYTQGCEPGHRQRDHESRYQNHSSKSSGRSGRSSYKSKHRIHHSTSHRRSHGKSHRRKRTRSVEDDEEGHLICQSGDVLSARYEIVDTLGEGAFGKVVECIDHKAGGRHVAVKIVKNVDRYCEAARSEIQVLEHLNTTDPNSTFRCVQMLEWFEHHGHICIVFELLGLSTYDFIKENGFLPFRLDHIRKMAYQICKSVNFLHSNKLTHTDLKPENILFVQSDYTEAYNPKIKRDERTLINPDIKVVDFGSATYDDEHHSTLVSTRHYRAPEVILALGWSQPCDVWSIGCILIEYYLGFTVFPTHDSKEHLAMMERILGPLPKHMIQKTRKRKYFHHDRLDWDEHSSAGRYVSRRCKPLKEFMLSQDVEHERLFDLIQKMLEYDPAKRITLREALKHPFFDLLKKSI
EphA5, sequence (P54756 whole entry): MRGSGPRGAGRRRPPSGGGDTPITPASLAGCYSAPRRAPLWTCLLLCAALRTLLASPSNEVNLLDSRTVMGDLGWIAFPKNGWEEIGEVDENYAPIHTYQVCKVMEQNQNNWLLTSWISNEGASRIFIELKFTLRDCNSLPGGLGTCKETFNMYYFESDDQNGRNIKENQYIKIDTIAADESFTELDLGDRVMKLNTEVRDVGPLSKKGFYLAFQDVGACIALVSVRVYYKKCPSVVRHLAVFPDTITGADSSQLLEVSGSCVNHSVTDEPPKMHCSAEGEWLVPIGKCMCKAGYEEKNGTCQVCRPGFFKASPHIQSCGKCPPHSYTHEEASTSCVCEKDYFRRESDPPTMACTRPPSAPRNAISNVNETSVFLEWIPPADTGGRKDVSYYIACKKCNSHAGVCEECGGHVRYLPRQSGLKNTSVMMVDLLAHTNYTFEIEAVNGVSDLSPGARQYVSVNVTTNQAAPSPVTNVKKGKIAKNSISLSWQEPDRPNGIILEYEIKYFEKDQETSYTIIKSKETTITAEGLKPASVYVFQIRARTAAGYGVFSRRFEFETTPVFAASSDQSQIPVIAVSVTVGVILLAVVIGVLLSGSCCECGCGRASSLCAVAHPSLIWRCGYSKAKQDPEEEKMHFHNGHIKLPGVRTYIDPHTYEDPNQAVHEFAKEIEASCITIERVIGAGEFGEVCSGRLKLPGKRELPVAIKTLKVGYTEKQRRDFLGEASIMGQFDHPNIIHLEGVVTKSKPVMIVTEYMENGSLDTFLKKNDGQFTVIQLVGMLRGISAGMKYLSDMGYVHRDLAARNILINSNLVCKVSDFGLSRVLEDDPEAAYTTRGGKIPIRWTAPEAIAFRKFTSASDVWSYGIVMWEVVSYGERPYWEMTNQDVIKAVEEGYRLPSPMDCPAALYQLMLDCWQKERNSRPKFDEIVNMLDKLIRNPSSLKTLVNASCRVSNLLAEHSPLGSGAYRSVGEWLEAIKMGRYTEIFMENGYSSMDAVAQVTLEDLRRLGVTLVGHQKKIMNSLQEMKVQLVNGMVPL

dTm 33 [1]: 6.0 °C
dTm 33 [2]: -0.2 °C
dTm 33 [3]: 10.6 °C
dTm 33 [4]: 13.1 °C
dTm 33 [5]: 6.8 °C
dTm 33 [6]: 10.6 °C
dTm 33 [7]: -0.5 °C
dTm 33 [8]: 8.3 °C
dTm 33 [9]: 13.9 °C
SMILES: Cc1cccc(-c2ccc(-c3cc4cnc(Nc5ccc(F)c(CO)c5)nc4n(CCCCN)c3=O)c(Cl)c2)n1 [compound 33, 8-(4-Aminobutyl)-6-(2-chloro-4-(6-methylpyridin-2-yl)phenyl)-2-((4-fluoro-3-(hydroxymethyl)phenyl)amino)pyrido[2,3-d]pyrimidin-7(8H)-one]

dTm 34 [1]: 1.4 °C
dTm 34 [2]: -0.3 °C
dTm 34 [3]: 8.4 °C
dTm 34 [4]: 8.8 °C
dTm 34 [5]: 3.2 °C
dTm 34 [6]: 5.2 °C
dTm 34 [7]: -0.1 °C
dTm 34 [8]: 3.9 °C
dTm 34 [9]: 8.3 °C
SMILES: COc1ccc(O)c(Nc2ncc3cc(-c4ccc(-c5cccc(C)n5)cc4Cl)c(=O)n(CCCCN)c3n2)c1 [compound 34, 8-(4-Aminobutyl)-6-(2-chloro-4-(6-methylpyridin-2-yl)phenyl)-2-((2-hydroxy-5-methoxy-phenyl)amino)pyrido[2,3-d]pyrimidin-7(8H)-one]

dTm 35 [1]: 1.0 °C
dTm 35 [2]: -1.6 °C
dTm 35 [3]: 10.6 °C
dTm 35 [4]: 13.6 °C
dTm 35 [5]: 4.2 °C
dTm 35 [6]: 5.8 °C
dTm 35 [7]: -0.6 °C
dTm 35 [8]: 4.6 °C
dTm 35 [9]: 12.7 °C
SMILES: COc1cc(N2CCOCC2)ccc1Nc1ncc2cc(-c3ccc(-c4cccc(C)n4)cc3Cl)c(=O)n(CCCCN)c2n1 [compound 35, 8-(4-Aminobutyl)-6-(2-chloro-4-(6-methylpyridin-2-yl)phenyl)-2-((2-methoxy-4-morpholino-phenyl)amino)pyrido[2,3-d]pyrimidin-7(8H)-one]

dTm 36 [1]: 0.6 °C
dTm 36 [2]: -0.9 °C
dTm 36 [3]: 9.2 °C
dTm 36 [4]: 11.8 °C
dTm 36 [5]: 3.5 °C
dTm 36 [6]: 5.0 °C
dTm 36 [7]: -0.1 °C
dTm 36 [8]: 2.4 °C
dTm 36 [9]: 8.9 °C
SMILES: COc1cc(N2CCN(C)CC2)ccc1Nc1ncc2cc(-c3ccc(-c4cccc(C)n4)cc3Cl)c(=O)n(CCCCN)c2n1 [compound 36, 8-(4-Aminobutyl)-6-(2-chloro-4-(6-methylpyridin-2-yl)phenyl)-2-((2-methoxy-4-(4-methylpiperazin-1-yl)phenyl)amino)pyrido[2,3-d]pyrimidin-7(8H)-one]
